Experimental findings from US8999974B2, “Acyl piperazine derivatives as TTX-S blockers” (Raqualia Pharma Inc., priority 2010, dated 2015) are described below.

One assay has as its target T1, human NaV1.3 (Homo sapiens, UniProt Q9NY46).
T1 construct: expressed in transfected cells; host or cells: HEK293
The experiment in a line: FRET assay (EFS, FDSS) on HEK293 cells expressing human NaV1.3 channels. Format: cell-based. The conditions noted are these: FRET assay, HEK293 cells expressing human NaV1.3; read-out: IC50 against Nav1.3. In short, it runs like this: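 Membrane potential in HEK293 cells stably expressing human NaV1.3, read by FRET (CC2-DMPE 10 µM / DiSBAC2(3) 15 µM with 0.555 mM VABSC-1) after electrical field stimulation, in HEPES-buffered saline pH 7.4. Compounds added after dye loading at room temperature. IC50 from normalized 440 nm fluorescence ratios.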

A further assay concerns the target T2, human Nav1.7 (Homo sapiens, UniProt Q15858).
T2 construct: expressed in transfected cells; host or cells: CHO
Put plainly: FRET assay (EFS, FDSS) on CHO cells expressing human NaV1.7 channels. The conditions noted are these: FRET assay, CHO cells expressing human NaV1.7; read-out: IC50 against Nav1.7. Type of assay: cell-based. Here is the method: This screen was used to determine the effects of compounds on human NaV1.3, human Nav1.7, and human Nav1.5 channels, utilising electrical field stimulation (EFS) system in 96-well plate format on FDSS (Hamamatsu Photonics) platform. The change of membrane potential was monitored with FRET dye pair, oxonol (DiSBAC2(3)) and coumarin (CC2-DMPE).
CHO cells expressing human NaV1.7 channels were grown in T225 flasks, in a 5% CO2 humidified incubator to about 80% confluence. Media composition consisted of HAM/F12 with Glutamax I, 10% FCS, 100 units/ml Penicillin and 100 microgram/ml Hygromycin.
Protocol: • Seeded each cell lines (1×10^5 cells/well) into poly-D-lysine coated 96-well plates prior to experimentation. • Incubated at 37° C. in 5% CO2 for 24 hours. • Washed each well with assay buffer (140 mM NaCl, 4.5 mM KCl, 10 mM D-Glucose, 2 mM CaCl2, 1 mM MgCl2, 10 mM HEPES, pH 7.4 adjusted with NaOH) twice. • Added 1st loading solution containing 10 microM CC2-DMPE and 0.06% Pluronic F-127 in assay buffer. • Incubated the plate at room temperature in dark for 1 hour. • Removed 1st loading solution and added 2nd loading solution containing 15 microM DiSBAC2(3), 0.555 mM VABSC-1 and 0.004% Pluronic F-127 in assay buffer. • Placed the plate under the dark at room temperature for 25 minutes. • Added compound solutions into the assay plate. • Set the assay plate in FDSS and placed an EFS device on the plate. • Measured EFS-induced fluorescent response by FDSS.
The data were analyzed and reported as normalized ratios of intensities measured at […]. The process of calculating these ratios was performed as follows:
[formula] This analysis was performed using a computerized specific program designed for FDSS generated data. Fluorescence ratio values were plotted using XLfit to determine an IC50 value for each compound.

For orientation: IC50 means the concentration at which inhibition is half-maximal.

T2 sequence (Q15858 whole entry): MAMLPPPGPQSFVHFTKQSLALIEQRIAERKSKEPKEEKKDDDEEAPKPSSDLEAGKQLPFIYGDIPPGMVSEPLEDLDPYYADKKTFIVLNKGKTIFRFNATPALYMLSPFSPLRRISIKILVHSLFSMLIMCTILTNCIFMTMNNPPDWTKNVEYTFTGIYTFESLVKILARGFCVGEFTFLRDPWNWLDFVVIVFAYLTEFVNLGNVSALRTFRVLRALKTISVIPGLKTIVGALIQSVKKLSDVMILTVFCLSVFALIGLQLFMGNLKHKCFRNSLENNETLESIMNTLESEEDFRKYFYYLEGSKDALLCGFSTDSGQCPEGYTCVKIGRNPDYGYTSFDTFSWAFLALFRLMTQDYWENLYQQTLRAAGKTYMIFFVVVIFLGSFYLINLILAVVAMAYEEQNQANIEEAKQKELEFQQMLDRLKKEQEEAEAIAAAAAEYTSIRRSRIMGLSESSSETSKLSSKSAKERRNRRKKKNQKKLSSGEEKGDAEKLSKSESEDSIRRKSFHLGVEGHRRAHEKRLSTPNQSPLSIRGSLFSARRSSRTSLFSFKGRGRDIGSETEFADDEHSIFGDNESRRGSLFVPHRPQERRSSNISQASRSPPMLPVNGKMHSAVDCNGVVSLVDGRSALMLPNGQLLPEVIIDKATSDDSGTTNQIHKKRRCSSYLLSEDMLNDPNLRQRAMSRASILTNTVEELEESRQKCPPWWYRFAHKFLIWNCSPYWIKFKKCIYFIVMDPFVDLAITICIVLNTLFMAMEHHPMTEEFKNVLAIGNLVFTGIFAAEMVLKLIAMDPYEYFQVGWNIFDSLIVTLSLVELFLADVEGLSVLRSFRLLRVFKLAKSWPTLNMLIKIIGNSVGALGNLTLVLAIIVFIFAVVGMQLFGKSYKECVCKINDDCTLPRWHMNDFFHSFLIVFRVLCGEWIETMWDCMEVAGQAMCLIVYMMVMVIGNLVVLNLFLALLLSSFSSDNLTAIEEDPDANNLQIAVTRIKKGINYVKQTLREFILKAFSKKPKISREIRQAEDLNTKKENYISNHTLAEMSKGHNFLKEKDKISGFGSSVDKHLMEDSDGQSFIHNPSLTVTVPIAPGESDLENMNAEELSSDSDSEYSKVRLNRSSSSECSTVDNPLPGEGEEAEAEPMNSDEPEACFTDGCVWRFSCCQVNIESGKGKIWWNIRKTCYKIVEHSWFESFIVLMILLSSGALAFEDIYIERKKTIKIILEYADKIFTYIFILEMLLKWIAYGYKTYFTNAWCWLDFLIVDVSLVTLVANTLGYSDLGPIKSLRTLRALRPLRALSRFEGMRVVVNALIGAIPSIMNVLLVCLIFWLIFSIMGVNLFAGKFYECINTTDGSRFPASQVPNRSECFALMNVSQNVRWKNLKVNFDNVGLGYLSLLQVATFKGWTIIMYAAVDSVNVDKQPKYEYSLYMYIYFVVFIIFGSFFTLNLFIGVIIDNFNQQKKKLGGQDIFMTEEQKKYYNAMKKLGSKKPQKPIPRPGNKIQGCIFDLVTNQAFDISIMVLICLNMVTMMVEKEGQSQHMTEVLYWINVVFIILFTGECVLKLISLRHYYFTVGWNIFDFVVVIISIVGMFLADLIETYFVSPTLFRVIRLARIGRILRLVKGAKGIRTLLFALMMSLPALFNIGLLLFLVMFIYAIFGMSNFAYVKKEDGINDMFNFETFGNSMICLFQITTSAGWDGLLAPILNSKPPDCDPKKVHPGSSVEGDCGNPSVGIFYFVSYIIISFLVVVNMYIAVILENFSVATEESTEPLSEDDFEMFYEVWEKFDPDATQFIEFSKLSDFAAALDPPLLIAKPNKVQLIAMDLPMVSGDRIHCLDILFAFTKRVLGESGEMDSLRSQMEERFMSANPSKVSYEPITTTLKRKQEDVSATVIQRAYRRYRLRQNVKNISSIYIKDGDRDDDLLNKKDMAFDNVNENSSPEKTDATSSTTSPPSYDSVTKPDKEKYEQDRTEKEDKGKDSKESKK
T1 sequence (Q9NY46 whole entry): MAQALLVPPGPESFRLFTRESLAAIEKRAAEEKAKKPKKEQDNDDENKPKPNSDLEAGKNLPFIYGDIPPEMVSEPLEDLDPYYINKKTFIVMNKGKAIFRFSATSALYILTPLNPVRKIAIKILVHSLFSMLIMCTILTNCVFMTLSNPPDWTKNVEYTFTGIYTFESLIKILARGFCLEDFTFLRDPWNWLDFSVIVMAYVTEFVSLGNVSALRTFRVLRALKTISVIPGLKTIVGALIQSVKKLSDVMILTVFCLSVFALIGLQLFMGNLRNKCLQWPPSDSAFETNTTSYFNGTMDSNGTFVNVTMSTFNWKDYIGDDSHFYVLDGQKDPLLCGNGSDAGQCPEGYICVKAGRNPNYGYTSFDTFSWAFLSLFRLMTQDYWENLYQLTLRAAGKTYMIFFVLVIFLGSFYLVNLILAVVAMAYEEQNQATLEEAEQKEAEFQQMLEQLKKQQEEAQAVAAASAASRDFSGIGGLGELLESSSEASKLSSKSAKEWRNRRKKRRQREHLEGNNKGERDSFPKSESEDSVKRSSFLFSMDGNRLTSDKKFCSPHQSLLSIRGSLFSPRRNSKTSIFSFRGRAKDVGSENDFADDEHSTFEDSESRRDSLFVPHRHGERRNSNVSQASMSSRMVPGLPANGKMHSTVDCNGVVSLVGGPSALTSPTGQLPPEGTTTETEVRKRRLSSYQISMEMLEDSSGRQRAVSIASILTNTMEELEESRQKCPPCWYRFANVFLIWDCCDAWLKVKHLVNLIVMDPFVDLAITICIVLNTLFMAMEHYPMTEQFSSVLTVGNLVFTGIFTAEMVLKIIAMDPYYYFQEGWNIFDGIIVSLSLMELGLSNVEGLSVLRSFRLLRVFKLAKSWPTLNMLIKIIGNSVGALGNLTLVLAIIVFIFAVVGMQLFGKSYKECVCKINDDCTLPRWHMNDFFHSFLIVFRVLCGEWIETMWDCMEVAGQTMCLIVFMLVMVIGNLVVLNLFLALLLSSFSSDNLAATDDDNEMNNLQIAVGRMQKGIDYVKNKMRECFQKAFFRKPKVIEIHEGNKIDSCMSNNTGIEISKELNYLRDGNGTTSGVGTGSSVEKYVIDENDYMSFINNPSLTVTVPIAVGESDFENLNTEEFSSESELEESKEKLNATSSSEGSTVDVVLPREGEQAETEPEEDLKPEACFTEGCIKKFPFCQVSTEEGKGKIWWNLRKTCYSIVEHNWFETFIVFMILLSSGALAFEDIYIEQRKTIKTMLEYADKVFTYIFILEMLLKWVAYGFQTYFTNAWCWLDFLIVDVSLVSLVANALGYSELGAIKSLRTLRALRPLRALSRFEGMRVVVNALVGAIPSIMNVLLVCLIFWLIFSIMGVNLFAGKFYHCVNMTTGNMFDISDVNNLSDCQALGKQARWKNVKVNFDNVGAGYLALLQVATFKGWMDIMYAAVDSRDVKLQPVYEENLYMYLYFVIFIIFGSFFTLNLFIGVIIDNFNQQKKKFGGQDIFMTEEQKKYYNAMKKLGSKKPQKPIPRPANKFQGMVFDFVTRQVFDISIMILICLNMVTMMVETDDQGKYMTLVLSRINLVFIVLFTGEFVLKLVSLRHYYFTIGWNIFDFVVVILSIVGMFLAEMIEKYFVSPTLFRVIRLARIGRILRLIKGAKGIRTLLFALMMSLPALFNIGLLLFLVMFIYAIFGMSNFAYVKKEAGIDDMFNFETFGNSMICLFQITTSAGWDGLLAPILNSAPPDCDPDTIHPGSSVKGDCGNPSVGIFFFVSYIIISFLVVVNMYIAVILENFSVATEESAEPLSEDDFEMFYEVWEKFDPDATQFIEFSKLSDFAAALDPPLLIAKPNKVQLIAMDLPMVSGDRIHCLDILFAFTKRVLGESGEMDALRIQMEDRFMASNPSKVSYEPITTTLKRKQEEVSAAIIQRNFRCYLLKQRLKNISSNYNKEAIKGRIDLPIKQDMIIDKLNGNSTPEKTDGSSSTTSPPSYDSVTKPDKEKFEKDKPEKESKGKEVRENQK

`Cn1nc(C(=O)N2CCN(c3cc(OCC(F)(F)F)ncn3)CC2)c2cc(F)ccc21` [Example 212, (5-fluoro-1-methyl-1H-indazol-3-yl)(4-(6-(2,2,2-trifluoroethoxy)pyrimidin-4-yl)piperazin-1-yl)methanone]: the IC50 at human NaV1.3 and at human Nav1.7 was under 3 µM in each case.
Regarding `CC(C)COc1cc(N2CCN(C(=O)c3csc(-c4ccccc4)n3)CC2)ncn1` [Example 213, (4-(6-isobutoxypyrimidin-4-yl)piperazin-1-yl)(2-phenylthiazol-4-yl)methanone], the IC50 at human NaV1.3 and on human Nav1.7 was under 3 µM each time.
On to `CCn1nc(C(=O)N2CCN(c3cc(OCC(F)(F)F)ncn3)CC2)cc1C(F)(F)F` [Example 229, (1-ethyl-5-(trifluoromethyl)-1H-pyrazol-3-yl)(4-(6-(2,2,2-trifluoroethoxy)pyrimidin-4-yl)piperazin-1-yl)methanone], for which the IC50 on human NaV1.3 and on human Nav1.7 was under 3 µM in each case.
Take `O=C(c1csc(-c2ccccn2)n1)N1CCN(c2cc(OCC(F)(F)F)ncn2)CC1` [Example 244, (2-(pyridin-2-yl)thiazol-4-yl)(4-(6-(2,2,2-trifluoroethoxy)pyrimidin-4-yl)piperazin-1-yl)methanone]: the IC50 on human NaV1.3 and on human Nav1.7 was under 3 µM in each case.
